# Test results taken from US9371335B2, “Spirothienopyran-piperidine derivatives as ORL-1 receptor antagonists for their use in the treatment of alcohol dependence and abuse” (Eli Lilly and Company, priority 2011, dated 2016).
# System: extracellular dopamine (DA) in the rat nucleus accumbens
# Experiment: Ethanol-stimulated increases in extracellular dopamine levels in the nucleus accumbens (microdialysis)
# Type: in vivo, Sprague-Dawley rats
# Excerpt: Ethanol-Stimulated Increases in Extracellular Dopamine Levels in the Nucleus Accumbens:
# Male Sprague-Dawley rats with a body weight of 260-300 g from Taconic Farms (Germantown, N.Y.) are implanted with a guide cannula (Bioanalytical Systems Inc, West Lafayette, Ind.) in the nucleus accumbens by the vendor 5-7 days before the experiment. Stereotaxic coordinates for the nucleus accumbens cannula are: A (anterior to bregma), 1.7 mm; L (lateral from the midsagittal suture, right side), 1.0 mm; and V (ventral from the dura surface), −6.0 mm (Paxinos and Watson, 1986). A concentric type probe (BR-2) from Bioanalytical Systems Inc. (West Lafayette, Ind.) is flushed with water and carefully inserted through the cannula about 16 hours before the experiment so that 2 mm of the membrane tip extends below the end of the guide cannula. The rat is then placed in a plastic test bowl to acclimate overnight. Based on methods modified from Melendez et al. (Melendez R I, Rodd-Henricks Z A, McBride W J and Murphy J M (2003), Alcohol stimulates the release of dopamine in the ventral pallidum but not in the globus pallidus: a dual-probe microdialysis study. Neuropsychopharmacology 28:939-946), the rat is connected to a fraction collection system for freely moving animals on the morning of the experiment (Raturn, BioAnalytical Systems Inc, West Lafayette, Ind.). The input tube of the dialysis probe is connected to a syringe pump (BeeHive and BabyBee, Bioanalytical Systems Inc, West Lafayette, Ind.) which delivers an artificial cerebrospinal fluid (150 mM NaCl, 3 mM KCl, 1.7 mM CaCl2 and 0.9 mM MgCl2 ([…])) to the probe at a final collection rate of 1.5 μL/min. The output tubes from the rats are attached to a refrigerated fraction collector (Bioanalytical Systems Inc, West Lafayette, Ind.). After a period of about an hour at an initial perfusion rate of 5.0 μL/min, the flow rate is decreased to 2.0 μL/min for equilibration of the probe and establishment of stable baseline levels for 1 hour, then collection of 20 minute fractions is started. Four baseline samples are collected before injection of any drugs.
# Test compound is administered orally at 30 mg/kg (2 ml/kg dose volume, dissolved in a vehicle consisting of 20% Captisol® in 25 mM phosphate buffer at pH=3). The compound is administered either alone (10 min into the 4th sample; 0 min time point) or in combination with ethanol (10 min into the 1st sample; −60 min time point). Ethanol is administered intraperitoneally (ip) at a dose of 1.1 g/kg in a 15% (v/v) solution in 0.9% saline in a volume of 2.9 ml per rat. Ethanol is administered 10 min into the 4th sample (0 min time point). Dialysate samples are transferred to an Alcott 718 Autosampler/Injector with the sample cooling tray set to 5° C. (Alcott Inc., Norcross, Ga.). […]
# [1] = compound 30 mg/kg oral + EtOH 1.1 g/kg ip
compound,measurement,setting,value
"Cc1nn(-c2ncccc2CO)cc1CN1CCC2(CC1)OCC(F)(F)c1cc(Cl)sc12 [Compound 1, [2-[4-[(2-chloro-4,4-difluoro-spiro[5H-thieno[2,3-c]pyran-7,4′-piperidine]-1′-yl)methyl]-3-methyl-pyrazol-1-yl]-3-pyridyl]methanol]",Mean DA level (% of baseline) during 120 min period post-EtOH injection,[1],102.78 % of baseline
same,Reduction of DA response relative to Vehicle,[1],88.16%
same,Mean DA level (% of baseline) during 120 min period post-EtOH injection,compound 30 mg/kg oral + Vehicle (no ethanol),98.53 % of baseline
same,ethanol-stimulated increase in extracellular DA concentration in the nucleus accumbens,result in words,prevent the increase in extracellular DA concentrations in the nucleus accumbens
